Assay results: patent US20240101540A1, “TARGETED PROTEIN DEGRADATION OF PARP14 FOR USE IN THERAPY” (Ribon Therapeutics, Inc., priority 2022, published 2024)
Where a name gives a salt, the structure may show the parent alone. Read-outs that look alike come from different tables or passages of the source.

Target: T1, HiBiT tagged PARP14 (Homo sapiens, UniProt Q460N5)
T1 construct: engineered to contain a HiBiT tag on both alleles of the PARP14 gene; endogenous in cells; host or cells: Jurkat cells stably transfected with LgBiT (Promega), PARP14 locus edited by CRISPR/Cas9
T1 sequence (Q460N5 whole entry): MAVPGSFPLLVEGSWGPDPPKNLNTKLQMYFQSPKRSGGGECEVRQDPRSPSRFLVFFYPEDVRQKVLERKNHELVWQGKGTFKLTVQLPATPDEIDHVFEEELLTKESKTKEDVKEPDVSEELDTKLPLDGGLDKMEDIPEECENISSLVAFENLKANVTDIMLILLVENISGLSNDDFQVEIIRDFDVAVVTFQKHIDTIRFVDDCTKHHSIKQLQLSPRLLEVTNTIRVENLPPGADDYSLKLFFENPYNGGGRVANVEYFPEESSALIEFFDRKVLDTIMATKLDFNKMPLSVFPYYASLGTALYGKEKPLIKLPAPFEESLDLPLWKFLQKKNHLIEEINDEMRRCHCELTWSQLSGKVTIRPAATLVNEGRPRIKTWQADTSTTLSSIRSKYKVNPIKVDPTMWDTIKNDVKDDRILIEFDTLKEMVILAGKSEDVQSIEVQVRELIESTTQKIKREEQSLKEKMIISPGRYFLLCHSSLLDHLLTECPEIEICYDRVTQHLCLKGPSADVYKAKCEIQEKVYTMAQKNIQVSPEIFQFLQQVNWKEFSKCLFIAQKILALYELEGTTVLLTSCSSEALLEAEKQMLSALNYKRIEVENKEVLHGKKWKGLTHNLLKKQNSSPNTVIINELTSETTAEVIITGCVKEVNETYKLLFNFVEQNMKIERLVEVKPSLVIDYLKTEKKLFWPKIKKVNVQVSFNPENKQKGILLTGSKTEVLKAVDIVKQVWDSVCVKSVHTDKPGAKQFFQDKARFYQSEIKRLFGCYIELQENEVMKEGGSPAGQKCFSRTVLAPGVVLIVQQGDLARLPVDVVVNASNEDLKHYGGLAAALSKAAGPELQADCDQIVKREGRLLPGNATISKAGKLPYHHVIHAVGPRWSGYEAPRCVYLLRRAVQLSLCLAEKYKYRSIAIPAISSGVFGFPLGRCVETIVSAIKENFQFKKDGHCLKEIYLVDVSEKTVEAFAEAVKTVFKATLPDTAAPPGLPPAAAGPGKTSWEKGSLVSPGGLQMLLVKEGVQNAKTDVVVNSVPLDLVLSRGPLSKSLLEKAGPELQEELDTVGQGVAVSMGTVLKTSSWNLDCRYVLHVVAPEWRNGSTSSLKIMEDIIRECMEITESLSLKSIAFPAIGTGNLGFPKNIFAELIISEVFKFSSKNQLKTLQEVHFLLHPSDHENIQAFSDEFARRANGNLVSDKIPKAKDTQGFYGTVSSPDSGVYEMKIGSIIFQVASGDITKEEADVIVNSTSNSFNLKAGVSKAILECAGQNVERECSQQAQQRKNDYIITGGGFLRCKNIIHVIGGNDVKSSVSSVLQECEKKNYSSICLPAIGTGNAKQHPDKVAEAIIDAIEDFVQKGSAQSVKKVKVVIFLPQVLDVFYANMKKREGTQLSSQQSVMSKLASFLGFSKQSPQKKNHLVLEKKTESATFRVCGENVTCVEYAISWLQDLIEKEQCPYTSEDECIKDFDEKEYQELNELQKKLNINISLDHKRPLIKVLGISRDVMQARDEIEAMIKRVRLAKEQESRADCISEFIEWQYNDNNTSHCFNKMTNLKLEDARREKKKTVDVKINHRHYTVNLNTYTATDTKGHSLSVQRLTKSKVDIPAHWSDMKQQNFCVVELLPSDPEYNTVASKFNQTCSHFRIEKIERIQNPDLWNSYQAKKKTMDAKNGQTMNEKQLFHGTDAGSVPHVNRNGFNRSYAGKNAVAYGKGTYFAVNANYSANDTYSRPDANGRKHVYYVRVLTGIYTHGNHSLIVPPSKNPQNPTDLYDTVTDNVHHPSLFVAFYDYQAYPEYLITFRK
Assay: HiBiT assay for the degradation of PARP14 (HiBiT tagged PARP14 in LgBiT expressing Jurkat cells, 2 or 24 hours)
Assay type: cell-based
Conditions: Assay B (Example B): HiBiT tagged PARP14 degradation in LgBiT expressing Jurkat cells
Description: Jurkat cells stably transfected with LgBiT (Promega) were engineered to contain a HiBiT tag on both alleles of the PARP14 gene (Genbank Accession Number: NM_017554) via CRISPR/Cas9 editing. The HiBiT tag is an 11 amino acid tag created by Promega that associates with LgBiT protein to form the NanoLuc® tag on the C-terminus of PARP14. Clones were isolated and confirmed for the HiBiT tag via Sanger sequencing.
Degradation of PARP14 protein was assessed by measuring the luminescence of the HiBiT tag associating with the LgBiT protein as a proxy for the PARP14 protein.
Jurkat cells were diluted to 250,000 cells per mL and then added to assay plate (Corning 3574) using a Multidrop (Thermo Fisher) to add 20 μL per well of the 384 well plate, resulting in 5,000 cells per well. 20 nL of a dose response curve diluted in DMSO of each test compound was added to the cell plate using a Mosquito (TTP Labtech) and the plate was incubated at 37° C. for 2 or 24 hours. Assay plate was brought to room temperature then 5 μL per well of Live Cell Substrate (Promega) was added to the plate. Luminescence was measured on an Envision (Perkin Elmer).
The average DMSO was calculated from 32 wells containing 0.1% DMSO only in columns 12 and 24 of the assay plate. The % of DMSO values were calculated as described below: […]
The % of DMSO values were plotted as a function of compound concentration and the following 4-parameter fit was applied to derive the DC50 values:
where top, bottom, and Hill Coefficient are allowed to float. Y is the % of DMSO and X is the compound concentration.
DC50 data for the Example compounds is provided below in Table 2 (“+” is ≤0.03 μM; “++” is ≥0.03 μM).

Compound `O=C1CCC(Nc2ccc(N3CCN(CCN4CCC(COc5cc(F)c6c(=O)[nH]c(COC7CCOCC7)nc6c5)CC4)CC3)c(F)c2)C(=O)N1` (racemic) [Example 99, 3-((3-fluoro-4-(4-(2-(4-(((5-fluoro-4-oxo-2-(((tetrahydro-2H-pyran-4-yl)oxy)methyl)-3,4-dihydroquinazolin-7-yl)oxy)methyl)piperidin-1-yl)ethyl)piperazin-1-yl)phenyl)amino)piperidine-2,6-dione] has a DC50 of under 30 nM.

Work on `O=C1CCC(Nc2ccc(N3CCN(CCN4CCC(COc5cc(F)c6c(=O)[nH]c(CSC7CCOCC7)nc6c5)CC4)CC3)c(F)c2)C(=O)N1` (single isomer, unassigned) [Example 64a, 3-((3-fluoro-4-(4-(2-(4-(((5-fluoro-4-oxo-2-(((tetrahydro-2H-pyran-4-yl)thio)methyl)-3,4-dihydroquinazolin-7-yl)oxy)methyl)piperidin-1-yl)ethyl)piperazin-1-yl)phenyl)amino)piperidine-2,6-dione] yielded a DC50 (read-out: DC50) of under 30 nM.

`O=C1CCC(Nc2ccc(N3CCN(CCN4CCC(COc5cc(F)c6c(=O)[nH]c(CSC7CCOCC7)nc6c5)CC4)CC3)c(F)c2)C(=O)N1` (single isomer, unassigned) [Example 64b, 3-((3-fluoro-4-(4-(2-(4-(((5-fluoro-4-oxo-2-(((tetrahydro-2H-pyran-4-yl)thio)methyl)-3,4-dihydroquinazolin-7-yl)oxy)methyl)piperidin-1-yl)ethyl)piperazin-1-yl)phenyl)amino)piperidine-2,6-dione] was tested, and the DC50 (read-out: DC50) was under 30 nM.

For `O=C1CCC(Nc2ccc(N3CCN(CCN4CCC(COc5cc(F)c6c(=O)[nH]c(COC7CCOCC7)nc6c5)CC4)CC3)c(F)c2)C(=O)N1` (single isomer, unassigned) [Example 99a, 3-((3-fluoro-4-(4-(2-(4-(((5-fluoro-4-oxo-2-(((tetrahydro-2H-pyran-4-yl)oxy)methyl)-3,4-dihydroquinazolin-7-yl)oxy)methyl)piperidin-1-yl)ethyl)piperazin-1-yl)phenyl)amino)piperidine-2,6-dione], the DC50 (read-out: DC50) was under 30 nM.

Compound `O=C1CCC(Nc2ccc(N3CCN(CCN4CCC(COc5cc(F)c6c(=O)[nH]c(COC7CCOCC7)nc6c5)CC4)CC3)c(F)c2)C(=O)N1` (single isomer, unassigned) [Example 99b, 3-((3-fluoro-4-(4-(2-(4-(((5-fluoro-4-oxo-2-(((tetrahydro-2H-pyran-4-yl)oxy)methyl)-3,4-dihydroquinazolin-7-yl)oxy)methyl)piperidin-1-yl)ethyl)piperazin-1-yl)phenyl)amino)piperidine-2,6-dione] has a DC50 (read-out: DC50) of under 30 nM.

Work on `O=C1CCC(Nc2ccc(N3CCC(N4CC(N5CCC(COc6cc(F)c7c(=O)[nH]c(CSC8CCOCC8)nc7c6)CC5)C4)CC3)c(F)c2)C(=O)N1` (single isomer, unassigned) [Example 116a, 3-((3-fluoro-4-(4-(3-(4-(((5-fluoro-4-oxo-2-(((tetrahydro-2H-pyran-4-yl)thio)methyl)-3,4-dihydroquinazolin-7-yl)oxy)methyl)piperidin-1-yl)azetidin-1-yl)piperidin-1-yl)phenyl)amino)piperidine-2,6-dione] yielded a DC50 (read-out: DC50) of under 30 nM.

In the case of `O=C1CCC(Nc2ccc(N3CCC(N4CC(N5CCC(COc6cc(F)c7c(=O)[nH]c(CSC8CCOCC8)nc7c6)CC5)C4)CC3)c(F)c2)C(=O)N1` (single isomer, unassigned) [Example 116b, 3-((3-fluoro-4-(4-(3-(4-(((5-fluoro-4-oxo-2-(((tetrahydro-2H-pyran-4-yl)thio)methyl)-3,4-dihydroquinazolin-7-yl)oxy)methyl)piperidin-1-yl)azetidin-1-yl)piperidin-1-yl)phenyl)amino)piperidine-2,6-dione], the DC50 (read-out: DC50) was under 30 nM.

`O=C1CCC(Nc2ccc(N3CCC(N4CCC(COc5cc(F)c6c(=O)[nH]c(CCC7CCOCC7)nc6c5)CC4)CC3)c(F)c2)C(=O)N1` (single isomer, unassigned) [Example 117a, 3-((3-fluoro-4-(4-(((5-fluoro-4-oxo-2-(2-(tetrahydro-2H-pyran-4-yl)ethyl)-3,4-dihydroquinazolin-7-yl)oxy)methyl)-[1,4′-bipiperidin]-11′-yl)phenyl)amino)piperidine-2,6-dione] was tested, and the DC50 (read-out: DC50) was under 30 nM.

Compound `O=C1CCC(Nc2ccc(N3CCC(N4CCC(COc5cc(F)c6c(=O)[nH]c(CCC7CCOCC7)nc6c5)CC4)CC3)c(F)c2)C(=O)N1` (single isomer, unassigned) [Example 117b, 3-((3-fluoro-4-(4-(((5-fluoro-4-oxo-2-(2-(tetrahydro-2H-pyran-4-yl)ethyl)-3,4-dihydroquinazolin-7-yl)oxy)methyl)-[1,4′-bipiperidin]-11′-yl)phenyl)amino)piperidine-2,6-dione] has a DC50 (read-out: DC50) of under 30 nM.

`O=C1CCC(Nc2ccc(N3CCC(N4CC(N5CCC(COc6cc(F)c7c(=O)[nH]c(COC8CCOCC8)nc7c6)CC5)C4)CC3)c(F)c2)C(=O)N1` (single isomer, unassigned) [Example 136a, 3-((3-fluoro-4-(4-(3-(4-(((5-fluoro-4-oxo-2-(((tetrahydro-2H-pyran-4-yl)oxy)methyl)-3,4-dihydroquinazolin-7-yl)oxy)methyl)piperidin-1-yl)azetidin-1-yl)piperidin-1-yl)phenyl)amino)piperidine-2,6-dione] showed a DC50 (read-out: DC50) of under 30 nM.

`O=C1CCC(Nc2ccc(N3CCC(N4CC(N5CCC(COc6cc(F)c7c(=O)[nH]c(COC8CCOCC8)nc7c6)CC5)C4)CC3)c(F)c2)C(=O)N1` (single isomer, unassigned) [Example 136b, 3-((3-fluoro-4-(4-(3-(4-(((5-fluoro-4-oxo-2-(((tetrahydro-2H-pyran-4-yl)oxy)methyl)-3,4-dihydroquinazolin-7-yl)oxy)methyl)piperidin-1-yl)azetidin-1-yl)piperidin-1-yl)phenyl)amino)piperidine-2,6-dione] gave a DC50 (read-out: DC50) of under 30 nM.

`Cn1c(=O)n(C2CCC(=O)NC2=O)c2ccc(N3CCN(CCN4CCC(COc5cc(F)c6c(=O)[nH]c(CSC7CCOCC7)nc6c5)CC4)CC3)cc21` (centres unmarked) [Example 91, 3-(5-(4-(2-(4-(((5-fluoro-4-oxo-2-(((tetrahydro-2H-pyran-4-yl)thio)methyl)-3,4-dihydroquinazolin-7-yl)oxy)methyl)piperidin-1-yl)ethyl)piperazin-1-yl)-3-methyl-2-oxo-2,3-dihydro-1H-benzo[d]imidazol-1-yl)piperidine-2,6-dione] gave a DC50 (read-out: DC50) of under 30 nM.

`O=C1CCC(Nc2ccc3c(c2)CN(CCN2CCC(COc4cc(F)c5c(=O)[nH]c(CSC6CCOCC6)nc5c4)CC2)C3)C(=O)N1` (centres unmarked) [Example 92, 3-((2-(2-(4-(((5-fluoro-4-oxo-2-(((tetrahydro-2H-pyran-4-yl)thio)methyl)-3,4-dihydroquinazolin-7-yl)oxy)methyl)piperidin-1-yl)ethyl)isoindolin-5-yl)amino)piperidine-2,6-dione] gave a DC50 (read-out: DC50) of under 30 nM.

Work on `O=C1CCC(NC(=O)c2ccc(N3CCN(CCN4CCC(COc5cc(F)c6c(=O)[nH]c(CSC7CCOCC7)nc6c5)CC4)CC3)cc2F)C(=O)N1` (centres unmarked) [Example 93, N-(2,6-dioxopiperidin-3-yl)-2-fluoro-4-(4-(2-(4-(((5-fluoro-4-oxo-2-(((tetrahydro-2H-pyran-4-yl)thio)methyl)-3,4-dihydroquinazolin-7-yl)oxy)methyl)piperidin-1-yl)ethyl)piperazin-1-yl)benzamide] yielded a DC50 (read-out: DC50) of under 30 nM.

Compound `O=C1CCC(Nc2ccc(N3CCN(CCN4CCC(COc5cc(F)c6c(=O)[nH]c(CSC7CCOCC7)nc6c5)CC4)CC3)cc2F)C(=O)N1` (centres unmarked) [Example 97, 3-((2-fluoro-4-(4-(2-(4-(((5-fluoro-4-oxo-2-(((tetrahydro-2H-pyran-4-yl)thio)methyl)-3,4-dihydroquinazolin-7-yl)oxy)methyl)piperidin-1-yl)ethyl)piperazin-1-yl)phenyl)amino)piperidine-2,6-dione] has a DC50 (read-out: DC50) of under 30 nM.

With `O=C1CCC(Nc2cc(F)c(N3CCN(CCN4CCC(COc5cc(F)c6c(=O)[nH]c(CSC7CCOCC7)nc6c5)CC4)CC3)c(F)c2)C(=O)N1` (centres unmarked) [Example 98, 3-((3,5-difluoro-4-(4-(2-(4-(((5-fluoro-4-oxo-2-(((tetrahydro-2H-pyran-4-yl)thio)methyl)-3,4-dihydroquinazolin-7-yl)oxy)methyl)piperidin-1-yl)ethyl)piperazin-1-yl)phenyl)amino)piperidine-2,6-dione formate] the DC50 (read-out: DC50) was under 30 nM.

`O=C1CCC(Nc2ccc(N3CCN(CCN4CCC(COc5cc(F)c6c(=O)[nH]c(CCC7CCOCC7)nc6c5)CC4)CC3)c(F)c2)C(=O)N1` (centres unmarked) [Example 100, 3-((3-fluoro-4-(4-(2-(4-(((5-fluoro-4-oxo-2-(2-(tetrahydro-2H-pyran-4-yl)ethyl)-3,4-dihydroquinazolin-7-yl)oxy)methyl)piperidin-1-yl)ethyl)piperazin-1-yl)phenyl)amino)piperidine-2,6-dione] was tested, and the DC50 (read-out: DC50) was under 30 nM.
